Measurements published in patent publication US20210186978A1, “COMBINATION THERAPY” (TARVEDA THERAPEUTICS, INC., priority 2018, published 2021).

Legend:
[1] = tested on: xenograft models that over-express SSTR2; assay: Preclinical single agent studies in xenograft models that over-express SSTR2; format: in vivo; settings: single agent Conjugate 1 treatment
Excerpt: The targeting peptide of Conjugate 1 selectively binds to SSTR2, triggers receptor internalization leading to the accumulation of the DM1 to provide antitumor activity by disrupting microtubule networks causing apoptosis and mitotic catastrophe.

[2] = Conjugate 1 tumor uptake with Vorinostat pre-treatment; format: in vivo, mice bearing NCI-H69 tumors; settings: Vorinostat pre-treatment vs none; P=0.03
Method: In vivo, mice bearing NCI-H69 tumors were pre-treated with Vorinostat then administered Conjugate 1. Tumors were analyzed for Conjugate 1 concentrations.

[3] = tested on: NCI-H727 (lung carcinoid) xenograft; assay: Conjugate 1 and Vorinostat combination in NCI-H727 xenograft model; format: in vivo, mice; settings: very low SSTR2 (IRS 1)
[4] = tested on: NCI-H69 cells; assay: Conjugate 1 potency in vitro with and without Vorinostat pre-treatment; format: cell-based
Method: In a further study, whether increased SSTR2 expression would result in better delivery of Conjugate 1 to small cell lung cancer cells (NCI-H69) was evaluated. Conjugate 1 potency with Vorinostat pre-treatment was compared with Conjugate 1 potency without Vorinostat pre-treatment. […].

[5] = tested on: NCI-H69 tumors (small cell lung cancer); assay: Low doses of Conjugate 1 with Vorinostat, same-day start or pre-treatment, in NCI-H69 model; format: in vivo; settings: mice
Method: In a further study with NCI-H69 model (small cell lung cancer), low doses of Conjugate 1 were given to tumor bearing mice and tumor regression was tracked. 1/3 MTD of Conjugate 1 is 0.7 mpk. 1/6 MTD of Conjugate 1 is 0.35 mpk.
Mice bearing NCI-H69 tumors were treated with a combination of Vorinostat and Conjugate 1 starting on the same day or pre-treated with Vorinostat for 4 days IP then administered low doses of Conjugate 1. In total, mice received 10 total doses of Vorinostat (q.d×5) and 2 doses of Conjugate 1 (q.w.×2).
. No significant body weight loss was observed during these studies. […]

[6] = tested on: SSTR2; assay: SSTR2 expression by IHC after Vorinostat treatment; format: in vivo, mice bearing NCI-H69 tumors
Method: Mice bearing NCI-H69 tumors (small cell lung cancer) were treated with Vorinostat for 10 days IP (q.d.×5). Tumors were collected and processed for SSTR2 expression by IHC.
On Day 6 the IRS score doubled from 6 in the vehicle to 12 in the treated group. The immunoreactive score (IRS) is determined by multiplying the staining intensity in four gradations with the percentage of positive cells in five gradations.

Row | SMILES | tumor regression [1] | Conjugate 1 concentrations in tumors [2] | activity as a single agent [3] | Conjugate 1 potency ([4]; with Vorinostat pre-treatment vs without, NCI-H69 cells in vitro) | 1/3 MTD [5] [mpk] | 1/6 MTD [5] [mpk] | IRS score (SSTR2 expression in tumors) ([6]; NCI-H69 tumors, Day 6, Vorinostat IP q.d.x5, vehicle 6) | SSTR2 expression in normal spleen tissues ([6]; normal spleen after Vorinostat treatment) | NCI-H69 cell proliferation ([4]; Vorinostat alone)
1 | COc1cc2cc(c1Cl)N(C)C(=O)C[C@H](OC(=O)[C@H](C)N(C)C(=O)CCSSC[C@H](NC(=O)[C@@H]1CSSC[C@H](NC(=O)[C@H](N)Cc3ccccc3)C(=O)N[C@@H](Cc3ccc(O)cc3)C(=O)N[C@H](Cc3c[nH]c4ccccc34)C(=O)N[C@@H](CCCCN)C(=O)N[C@@H]([C@@H](C)O)C(=O)N1)C(N)=O)C[C@]1(C)O[C@H]1[C@H](C)[C@@H]1C[C@@](O)(NC(=O)O1)[C@H](OC)C/C=C/C=C(\C)C2 [Conjugate 1] | complete and sustained tumor regression | statistically significant (P=0.03) increase | no activity | an increase in Conjugate 1 potency was observed | 0.7 | 0.35 |  |  | 
2 | O=C(CCCCCCC(=O)Nc1ccccc1)NO [Vorinostat, vorinostat] |  |  |  |  |  |  | 12 | an increase in expression was not observed | no effect
